31 compounds from patent US20240092802A1, “MU-OPIOID RECEPTOR AGONISTS AND USES THEREFOR” (Kures, Inc., priority 2020, published 2024) can be followed below.

Chain of Human MOR (P35372 whole entry, the tested form may be a part): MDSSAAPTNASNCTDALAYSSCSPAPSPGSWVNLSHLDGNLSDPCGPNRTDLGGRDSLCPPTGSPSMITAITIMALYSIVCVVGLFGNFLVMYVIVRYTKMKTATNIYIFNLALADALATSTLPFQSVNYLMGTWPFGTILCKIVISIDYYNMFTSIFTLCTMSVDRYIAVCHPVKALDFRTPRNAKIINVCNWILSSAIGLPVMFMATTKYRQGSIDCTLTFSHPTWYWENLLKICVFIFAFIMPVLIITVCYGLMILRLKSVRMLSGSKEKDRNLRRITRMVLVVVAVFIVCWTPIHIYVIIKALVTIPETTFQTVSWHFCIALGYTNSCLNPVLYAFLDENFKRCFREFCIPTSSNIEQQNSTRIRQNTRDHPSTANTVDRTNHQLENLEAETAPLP

This assay has as its target Human MOR (Homo sapiens (Human), UniProt P35372). In words: BRET G protein activation assay, human MOR in transfected HEK-293T cells. In kind it is cell-based. As to conditions: BRET G protein activation, HEK-293T; mean ± SEM; read-out: EC50 Human MOR. The source says:
Transfection. Human or mouse MOR cDNA was transfected alongside GαoB with RLuc8 inserted at position 91 (GαoB-RLuc8), Gβ1 (β1), and Gγ2 fused to the full-length mVenus at its N terminus (mVenus γ2) into HEK-293T cells (5×10^6 cells/plate) in 10-cm dishes using PEI (Polysciences Inc.; Warrington, PA) in a 1:1 ratio diluted in Opti-MEM (Life Technologies Corp.; Grand Island, NY) to assay for G protein activation as described previously (Rives, M.-L. et al. J. Biol. Chem. 2012, 287, 27050-4; Negri, A.; Rives, M.-L.; Caspers, M. J. et al. J. Chem. Inf. Model. 2013, 53, 521-526). Cells were maintained in the Dulbecco's Modified Eagle Medium (high glucose #11965; Life Technologies) supplemented with 10% FBS (Premium Select, Atlanta Biologicals; Atlanta, GA) and 100 U/mL penicillin and 100 μg/mL streptomycin (#15140, Life Technologies). After 24 hours the media was changed, and the experiment was performed 24 hours later (48 hours after transfection).
BRET. Transfected cells were dissociated and resuspended in phosphate-buffered saline (PBS). Approximately 200,000 cells/well were added to a black-framed, white well 96-well plate (#60050; Perkin Elmer; Waltham, MA). The microplate was centrifuged and the cells were resuspended in PBS. Then 5 μM of the luciferase substrate coelenterazine H was added to each well for 5 minutes. Following coelenterazine H addition, ligands were added and the BRET signal was measured at 5 minutes on a PHERAstar FS plate reader. Quantification of the BRET signal required calculating the ratio of the light emitted by the energy acceptor, mVenus (510-540 nm), over the light emitted by the energy donor, RLuc8 (485 nm). […] Dose response curves were fit using three-parameter logistics equation in GraphPad Prism 6.
(Bioluminescence resonance energy transfer reports proximity on the nanometre scale.)
As for `CCOC(=O)CCCCCCNC1c2ccccc2S(=O)(=O)N(C)c2ccsc21` (stereo not shown) [compound 6, Ethyl 7-((4-methyl-5,5-dioxido-4,10-dihydrobenzo[f]thieno[3,2-c][1,2]thiazepin-10-yl)amino)heptanoate], the EC50 – broadly, the concentration that produces a half-maximal response – was under 10 µM.
`COCCCNC1c2ccccc2S(=O)(=O)N(C)c2ccsc21` (stereo not shown) [compound 7, 10-((3-Methoxypropyl)amino)-4-methyl-4,10-dihydrobenzo[f]thieno[3,2-c][1,2]thiazepine 5,5-dioxide]: the EC50 was under 10 µM.
As for `COCCCNC1c2ccccc2N(C)S(=O)(=O)c2ccccc21` (stereo not shown) [compound 10, 11-((3-Methoxypropyl)amino)-6-methyl-6,11-dihydrodibenzo[c,f][1,2]thiazepine 5,5-dioxide], the EC50 is under 10 µM.
`COCCCNC1c2cc(Br)ccc2N(C)S(=O)(=O)c2cc(Cl)ccc21` (stereo not shown) [compound 11, 9-Bromo-3-chloro-11-((3-methoxypropyl)amino)-6-methyl-6,11-dihydrodibenzo[c,f][1,2]thiazepine 5,5-dioxide]: the EC50 is under 10 µM.
As to `CC(=O)OCCCCCCNC1c2ccccc2N(C)S(=O)(=O)c2cc(Cl)ccc21` (stereo not shown) [compound 13, 6-((3-Chloro-6-methyl-5,5-dioxido-6,11-dihydrodibenzo[c,f][1,2]thiazepin-11-yl)amino)hexyl acetate], the EC50 is under 10 µM.
Next, `COCCCNC1c2ccccc2N(C)S(=O)(=O)c2cc(C)ccc21` (stereo not shown) [compound 15, 11-((3-Methoxypropyl)amino)-3,6-dimethyl-6,11-dihydrodibenzo[c,f][1,2]thiazepine 5,5-dioxide]: under 10 µM; `CCOC(CCCNC1c2ccccc2N(C)S(=O)(=O)c2cc(Cl)ccc21)OCC` (stereo not shown) [compound 24, 3-Chloro-11-((4,4-diethoxybutyl)amino)-6-methyl-6,11-dihydrodibenzo[c,f][1,2]thiazepine 5,5-dioxide]: under 10 µM; `CCCCCCCNC1c2ccccc2N(C)S(=O)(=O)c2cc(Cl)ccc21` (stereo not shown) [compound 26, 3-Chloro-11-(heptylamino)-6-methyl-6,11-dihydrodibenzo [c,f][1,2]thiazepine 5,5-dioxide]: under 10 µM.
To `COCCCNC1c2ccccc2N(C)S(=O)(=O)c2cc(OC)ccc21` (stereo not shown) [compound 27, 3-Methoxy-11-((3-methoxypropyl)amino)-6-methyl-6,11-dihydrodibenzo [c,f][1,2]thiazepine 5,5-dioxide] belongs under 10 µM.
Take `COCCCNC1c2ccccc2N(C)S(=O)(=O)c2cc(Oc3ccccc3)ccc21` (stereo not shown) [compound 29, 11-((3-Methoxypropyl)amino)-6-methyl-3-phenoxy-6,11-dihydrodibenzo [c,f][1,2]thiazepine 5,5-dioxide]: the EC50 was under 10 µM.
`CN1c2ccccc2C(NCCCC2OCCCO2)c2ccc(Cl)cc2S1(=O)=O` (stereo not shown) [compound 31, 11-((3-(1,3-Dioxan-2-yl)propyl)amino)-3-chloro-6-methyl-6,11-dihydrodibenzo[c,f][1,2]thiazepine 5,5-dioxide]: the EC50 was under 10 µM.
To `CSCCCNC1c2ccccc2N(C)S(=O)(=O)c2cc(Cl)ccc21` (stereo not shown) [compound 33, 3-Chloro-6-methyl-11-((3-(methylthio)propyl)amino)-6,11-dihydrodibenzo[c,f][1,2]thiazepine 5,5-dioxide] belongs under 10 µM; to `CC(C)OCCCNC1c2ccccc2N(C)S(=O)(=O)c2cc(Cl)ccc21` (stereo not shown) [compound 35, 3-Chloro-11-((3-isopropoxypropyl)amino)-6-methyl-6,11-dihydrodibenzo [c,f][1,2]thiazepine 5,5-dioxide], under 10 µM; to `COCCOCCNC1c2ccccc2N(C)S(=O)(=O)c2cc(Cl)ccc21` (stereo not shown) [compound 36, 3-Chloro-11-((2-(2-methoxyethoxy)ethyl)amino)-6-methyl-6,11-dihydrodibenzo[c,f][1,2]thiazepine 5,5-dioxide], under 10 µM.
Next, `COCCCCNC1c2ccccc2N(C)S(=O)(=O)c2cc(Cl)ccc21` (stereo not shown) [compound 39, 3-Chloro-11-((4-methoxybutyl)amino)-6-methyl-6,11-dihydrodibenzo [c,f][1,2]thiazepine 5,5-dioxide]: under 10 µM; `COCCNC1c2ccccc2N(C)S(=O)(=O)c2cc(Cl)ccc21` (stereo not shown) [compound 42, 3-Chloro-11-((2-methoxyethyl)amino)-6-methyl-6,11-dihydrodibenzo [c,f][1,2]thiazepine 5,5-dioxide]: under 10 µM; `COCCCNC1c2ccccc2S(=O)(=O)N(C)c2c(Br)csc21` (stereo not shown) [compound 43, 3-Bromo-10-((3-methoxypropyl)amino)-4-methyl-4, 10-dihydrobenzo[f]thieno[3,2-c][1,2]thiazepine 5,5-dioxide]: under 20 µM.
As to `CN1c2ccccc2C(NCC2CCOC2)c2ccc(Cl)cc2S1(=O)=O` (stereo not shown) [compound 46, 3-chloro-6-methyl-11-(((tetrahydrofuran-3-yl)methyl)amino)-6,11-dihydrodibenzo[c,f][1,2]thiazepine 5,5-dioxide], the EC50 was under 10 µM.
To `CN1CCCC1CCNC1c2ccccc2N(C)S(=O)(=O)c2cc(Cl)ccc21` (stereo not shown) [compound 47, 3-chloro-6-methyl-11-((2-(1-methylpyrrolidin-2-yl)ethyl)amino)-6,11-dihydrodibenzo[c,f][1,2]thiazepine 5,5-dioxide] belongs under 20 µM; to `COCCCNC1c2ccccc2S(=O)(=O)N(C)c2c(OC)cccc21` (stereo not shown) [compound 50, 7-Methoxy-11-((3-methoxypropyl)amino)-6-methyl-6,11-dihydrodibenzo [c,f][1,2]thiazepine 5,5-dioxide], under 20 µM.
Next, `COCCCNC1c2ccccc2N(C)S(=O)(=O)c2cc([S+](C)[O-])ccc21` (stereo not shown) [compound 55, 11-((3-Methoxypropyl)amino)-6-methyl-3-(methylsulfinyl)-6,11-dihydrodibenzo[c,f][1,2]thiazepine 5,5-dioxide]: under 20 µM; `COCCCNC1c2ccccc2N(C)S(=O)(=O)c2cc(-c3ccccc3)ccc21` (stereo not shown) [compound 56, 11-((3-Methoxypropyl)amino)-6-methyl-3-phenyl-6,11-dihydrodibenzo[c,f][1,2]thiazepine 5,5-dioxide]: under 10 µM.
Next, `CN1c2ccccc2C(NCCCCCCC(=O)NCCO)c2ccc(Cl)cc2S1(=O)=O` (stereo not shown) [compound 57, 7-((3-Chloro-6-methyl-5,5-dioxido-6,11-dihydrodibenzo [c,f][1,2]thiazepin-11-yl)amino)-N-(2-hydroxyethyl) heptanamide]: under 10 µM.
As to `CN1c2ccccc2C(NCCCCCCC2=NCCO2)c2ccc(Cl)cc2S1(=O)=O` (stereo not shown) [compound 58, 3-Chloro-11-((6-(4,5-dihydrooxazol-2-yl)hexyl)amino)-6-methyl-6,11-dihydrodibenzo[c,f][1,2]thiazepine 5,5-dioxide], the EC50 was under 10 µM.
As to `COCCCNC1c2ccccc2N(C)S(=O)(=O)c2cc(OC(C)=O)ccc21` (stereo not shown) [compound 59, 11-((3-Methoxypropyl)amino)-6-methyl-5,5-dioxido-6,11-dihydrodibenzo[c,f][1,2]thiazepin-3-yl acetate], the EC50 was under 10 µM.
To `COCCCNC1c2ccccc2N(C)S(=O)(=O)c2ccc(Cl)cc21` (stereo not shown) [compound 60, 2-Chloro-11-((3-methoxypropyl)amino)-6-methyl-6,11-dihydrodibenzo [c,f][1,2]thiazepine 5,5-dioxide] belongs under 20 µM; to `COCCCNC1c2ccccc2N(C)S(=O)(=O)c2cc(SC(C)C)ccc21` (stereo not shown) [compound 63, 3-(Isopropylthio)-11-((3-methoxypropyl)amino)-6-methyl-6,11-dihydrodibenzo[c,f][1,2]thiazepine 5,5-dioxide], under 10 µM; to `CCSc1ccc2c(c1)S(=O)(=O)N(C)c1ccccc1C2NCCCOC` (stereo not shown) [compound 64, 3-(Ethylthio)-11-((3-methoxypropyl)amino)-6-methyl-6,11-dihydrodibenzo[c,f][1,2]thiazepine 5,5-dioxide], under 10 µM.
To `CCN1c2ccccc2C(NCCCOC)c2ccccc2S1(=O)=O` (stereo not shown) [compound 65, 6-Ethyl-11-((3-methoxypropyl)amino)-6,11-dihydrodibenzo[c,f][1,2]thiazepine 5,5-dioxide] belongs over 20 µM; to `COC(C)CCNC1c2ccccc2N(C)S(=O)(=O)c2cc(Cl)ccc21` (stereo not shown) [compound 67, 3-Chloro-11-((3-methoxybutyl)amino)-6-methyl-6,11-dihydrodibenzo [c,f][1,2]thiazepine 5,5-dioxide], under 10 µM.
To `COCC(C)CNC1c2ccccc2N(C)S(=O)(=O)c2cc(Cl)ccc21` (stereo not shown) [compound 68, 3-Chloro-11-((3-methoxy-2-methylpropyl)amino)-6-methyl-6,11-dihydrodibenzo[c,f][1,2]thiazepine 5,5-dioxide] belongs under 10 µM.
